{"source": "patent US20240398759A1", "about": "“INHIBITING SEROTONIN TRANSPORTER PROTEIN (5-HTT)” (priority 2022, published 2024)", "key": {"[1]": {"details": "human, 1 µM", "experimental": "(§4) A 2.5 uL aliquot of 100 μM test compound was incubated with 247.5 uL of cryopreserved hepatocytes suspended in serum-free incubation medium at 1 million viable cells/mL. The mixture was incubated at 37° C. and shaken at 500 rpm for the designated time points (0.5, 5, 10, 15, 30, 60, 90, or 120 min). At each time point, 25 uL aliquot of incubation mixture was transferred to 125 uL of cold acetonitrile containing internal standard, followed by centrifugation for 30 min at 3,220 g. 100 uL of supernatant was mixed with 100 uL of distilled water for analysis by LC-MS/MS. Peak area ratios were determined from extracted ion chromatograms and percent recovery was calculated."}, "[2]": {"target": "PDE4B2 (Homo sapiens (Human), UniProt Q07343)", "sequence (Q07343 other isoform, or with tags, fused parts or gaps)": "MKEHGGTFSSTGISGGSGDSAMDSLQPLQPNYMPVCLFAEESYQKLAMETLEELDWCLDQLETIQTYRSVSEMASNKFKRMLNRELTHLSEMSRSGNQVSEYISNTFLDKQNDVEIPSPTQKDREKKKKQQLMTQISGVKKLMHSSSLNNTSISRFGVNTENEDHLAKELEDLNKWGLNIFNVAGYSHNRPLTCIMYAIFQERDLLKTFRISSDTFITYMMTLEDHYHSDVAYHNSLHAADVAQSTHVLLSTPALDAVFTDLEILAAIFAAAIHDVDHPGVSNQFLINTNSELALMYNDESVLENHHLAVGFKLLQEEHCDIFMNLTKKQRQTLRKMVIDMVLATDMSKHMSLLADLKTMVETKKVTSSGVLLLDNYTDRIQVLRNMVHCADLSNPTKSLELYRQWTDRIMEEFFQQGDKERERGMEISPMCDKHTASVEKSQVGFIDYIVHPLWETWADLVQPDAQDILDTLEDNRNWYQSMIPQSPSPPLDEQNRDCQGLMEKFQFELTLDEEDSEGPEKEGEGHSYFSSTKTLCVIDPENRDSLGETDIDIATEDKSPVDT", "test": "PDE4 inhibition assay (fluorescence polarization), PDE4B2", "format": "biochemical", "procedure": "(§1) 100 μM dilutions of the test compounds were prepared in assay buffer (10% DMSO concentration) and 5 μl of the dilution was added to a 50 μl reaction so that the final concentration of DMSO is 1% in all of reactions. The enzymatic reactions were conducted at room temperature for 60 minutes in a 50 μl mixture containing PDE assay buffer, 100 nM FAM-cAMP, a PDE enzyme (Table 2.3.1) and the test compound (Section 2.2). After the enzymatic reaction, 100 μl of a binding solution (1:100 dilution of the binding agent with the binding agent diluent) was added to each reaction and the reaction was performed at room temperature for 60 minutes. Fluorescence intensity was measured at an excitation of 485 nm and an emission of 528 nm using a Tecan Infinite M1000 microplate reader.\n(§2) • 1) Dilute 20 μM FAM-Cyclic-3′, 5′-AMP stock 100-fold with PDE buffer to make a 200 nM solution. • 2) Add 25 μl of FAM-Cyclic-3′,5′-AMP (200 nM) to each well designated “Positive Control”, “Test Inhibitor”, and “Substrate Control”. • 3) Add 20 μl of PDE assay buffer to each well designated “Substrate Control” and 45 μl of PDE assay buffer to each well designated “Blank”. • 4) Add 5 μl of inhibitor solution to each well designated “Test Inhibitor”. For the wells labeled “Positive Control”, “Substrate Control” and “Blank”, add 5 μl of the same solution without inhibitor (inhibitor buffer). • 5) Thaw PDE on ice. Upon first thaw, briefly spin tube containing enzyme to recover the full contents of the tube. • 6) Dilute PDE4 in PDE buffer to 7.5 pg/μl (0.15 ng/reaction)*. Initiate reaction by adding 20 µl of PDE4 (7.5 pg/μl) to the wells designated “Positive Control” and “Test Inhibitor.” • 7) Incubate at room temperature for 1 hour.\n(§3) • 1) Mix binding agent thoroughly and dilute binding agent 1:100 with binding agent diluent. • 2) Add 100 μl diluted binding agent to each microwell. Incubate at room temperature for 1 hour with slow shaking. • 3) Read the fluorescent polarization of the sample in a microtiter-plate reader equipped for the measurement of fluorescence polarization, capable of excitation at wavelengths ranging from 485±5 nm and detection of emitted light ranging from 528±10 nm. Blank value is subtracted from all other values. • 4) Data Analysis: PDE activity assays were performed in duplicate at each concentration. Fluorescence intensity is converted to fluorescence polarization using the Tecan Magellan6 software. The fluorescence polarization data were analyzed using the computer software, Graphpad Prism. The fluorescence polarization (FPt) in absence of the compound in each data set was defined as 100% activity. In the absence of PDE and the compound, the value of fluorescent polarization (FPb) in each data set was defined as 0% activity. The percent activity in the presence of the compound was calculated according to the following equation: % activity=(FP−FPb)/(FPt−FPb)×100%, where FP=the fluorescence polarization in the presence of the compound. The values of % activity versus a series of compound concentrations were then plotted using non-linear regression analysis of sigmoidal dose-response curve generated with the equation Y=B+(T−B)/1+10^(LogEC50−X)×Hill Slope), where Y=percent activity, B=minimum percent activity, T=maximum percent activity, X=logarithm of compound and Hill Slope=slope factor or Hill coefficient. The IC50 value was determined by the concentration causing a half-maximal percent activity."}, "[3]": {"system": "mouse behavior", "test": "SmartCube system behavioral signature in mice", "format": "in vivo", "excerpt": "To confirm that compound 018 and Compound 019 has antidepressant effects, the SmartCube® system (Psychogenics, Inc., Paramus, NJ) was used. This system uses features derived from mouse behavioral data to classify compounds for their ability to treat neuro-psychiatric symptoms by comparing the features to a proprietary reference database of behavioral feature sets that are linked to classes of marketed drugs known to treat neuro-psychiatric symptoms. Thus the system can be used as a model to identify the psychiatric effect of a compound by comparing the effects of the compounds against drugs with known validated effects. By comparing the responses of animals to known drugs, the test drug can be categorized according to its function; for example, hallucinogen, anxiogenic, analgesic, cognitive enhancer, psychostimulant, mood stabilizer, high dose anti-psychotic, anti-psychotic, sedative/hypnotic, anxiolytic, high dose antidepressant, antidepressant.\nOnce all features are extracted from the raw data through an automated pipeline, proprietary bioinformatics algorithms are used to decorrelate groups of features and find the combination of values that best separate different groups of interest. For each compound, at each dose, they system provides a probability that the drug is active and breaks down such putative activity into the different classes of interest.\nMice were tested in the SmartCube® system where they were exposed to a sequence of challenges during the 45-minute test period. The cubes were cleaned between each run.\nFor class and subclass analysis, a reference data set has been built from hundreds of drug doses in multiple drug classes plus a control group. Each reference drug was tested at multiple doses appropriate for that drug in mice. The best performing classifiers were chosen from our evaluation tests and two separate types of classifiers were built that make independent predictions at drug class and subclass levels. The Class consists of drugs that are currently in the market or have been clinically validated for that specific indication. The sub-class consists of both marketed drugs and other compounds that have been mechanistically validated and is a larger set than the Class.\nData was processed using proprietary computer vision and data mining algorithms and the results were compared to signatures of the reference compounds in our database. Multiple analyses of the data was performed to quantitatively produce independent predictions of drug class, and drug subclass. The behavioral signatures of the test drug were evaluated using these classifiers to predict potential therapeutic utility."}, "[4]": {"target": "SERT (Homo sapiens (Human), UniProt P31645)", "test": "SERT inhibition assay (Neurotransmitter Transporter fluorescence uptake, stable 5HTT HEK293 cells)", "format": "cell-based", "details": "n=6 ± SD", "procedure": "SERT inhibition was measured using a Neruotransmitter Transportation Fluorescence assay. Briefly, stable 5HTT HEK293 cells were prepared in a 384 microwell plate (20,000 cells per 20 μL well). Compounds were prepared by in assay buffer (20 mM HEPES in HBSS, 0.1% BSA) at a top concentration of 1 μM. 10 doses of test compound (3-fold serial dilution) were added to the plated cells and incubated for 30 minutes at 37° C. 25 μL of dye solution (Molecular Devices Neurotransmitter Transporter Uptake Assay Kit) was added per well and incubated for 30 minutes at 37° C."}, "[5]": {"details": "dog, in vivo", "text": "(§5) HPLC Instrument: Shimsadzu (DGU-20A5R, Serial No: L20705621435 IX; LC-30AD Serial No: L20555611905 AE and L20555611816 AE; SIL-L30AC, Serial No: L20565605499 AE; Rack Changer II Serial No. L20585601125 SS; CTO20A: Serial No. L20205620413 CD; CBM-20A: Serial No. L20235636200 CD) • MS: AB API 5500 LC/MS/MS instrument (Serial No. EF221221812) • Column: Phenomenex Synergi 2.5 μm Polar-RP 100A. (50×3 mm) • Mobile Phase: (A) 5% Acetonitrile in Water (0.1% Formic acid); (B) 95% Acetonitrile in Water (0.1% Formic acid) • Samples: 50 μL of plasma sample+5 μL of blank solution+200 μL of acetonitrile for PPE (protein precipitation extraction).\n(§6) The desired serial concentrations of working solutions were achieved by diluting stock solution of analyte with 50% acetonitrile in water solution. 5 μL of working solutions (5, 10, 20, 50, 100, 500, 1000, 5000, 10000 ng/mL) were added to 50 μL of the blank Beagle Dog plasma to achieve calibration standards of 0.5˜1000 ng/mL (0.5, 1, 2, 5, 10, 50, 100, 500, 1000 ng/mL) in a total volume of 55 μL. Five quality control samples at 1 ng/mL, 2 ng/mL, 5 ng/mL, 50 ng/mL and 800 ng/mL for plasma were prepared independently of those used for the calibration curves. These QC samples were prepared on the day of analysis in the same way as calibration standards.\n(§7) 55 μL standards, 55 μL QC samples and 55 μL unknown samples 50 μL plasma with 5 μL blank solution) were added to 200 μL of acetonitrile containing IS mixture for precipitating protein respectively. Then the samples were vortexed for 30 s. After centrifugation at 4 degree Celsius, 3900 rpm for 15 min, the supernatant was diluted 3 times with water."}, "[6]": {"target": "PDE4D2 (Homo sapiens (Human), UniProt Q08499)", "sequence (Q08499 303-809)": "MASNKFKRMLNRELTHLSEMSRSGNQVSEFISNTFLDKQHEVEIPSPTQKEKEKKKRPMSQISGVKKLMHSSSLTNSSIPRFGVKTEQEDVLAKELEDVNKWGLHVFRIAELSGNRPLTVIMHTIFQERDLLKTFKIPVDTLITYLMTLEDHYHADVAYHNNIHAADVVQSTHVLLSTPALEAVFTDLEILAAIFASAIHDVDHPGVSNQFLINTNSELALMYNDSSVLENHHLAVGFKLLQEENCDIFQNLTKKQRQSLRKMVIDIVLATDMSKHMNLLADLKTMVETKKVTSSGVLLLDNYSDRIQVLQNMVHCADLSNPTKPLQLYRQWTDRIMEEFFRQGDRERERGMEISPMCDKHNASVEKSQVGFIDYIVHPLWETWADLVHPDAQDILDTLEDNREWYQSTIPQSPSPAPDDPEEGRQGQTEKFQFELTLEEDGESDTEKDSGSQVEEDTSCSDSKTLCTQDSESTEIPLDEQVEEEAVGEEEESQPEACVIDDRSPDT", "test": "PDE4 inhibition assay (fluorescence polarization), PDE4D2", "format": "biochemical", "details": "10 μM", "procedure": "as §1, §2, §3"}, "[7]": {"target": "PDE4C1 (Homo sapiens (Human), UniProt Q08493)", "sequence (Q08493 whole entry)": "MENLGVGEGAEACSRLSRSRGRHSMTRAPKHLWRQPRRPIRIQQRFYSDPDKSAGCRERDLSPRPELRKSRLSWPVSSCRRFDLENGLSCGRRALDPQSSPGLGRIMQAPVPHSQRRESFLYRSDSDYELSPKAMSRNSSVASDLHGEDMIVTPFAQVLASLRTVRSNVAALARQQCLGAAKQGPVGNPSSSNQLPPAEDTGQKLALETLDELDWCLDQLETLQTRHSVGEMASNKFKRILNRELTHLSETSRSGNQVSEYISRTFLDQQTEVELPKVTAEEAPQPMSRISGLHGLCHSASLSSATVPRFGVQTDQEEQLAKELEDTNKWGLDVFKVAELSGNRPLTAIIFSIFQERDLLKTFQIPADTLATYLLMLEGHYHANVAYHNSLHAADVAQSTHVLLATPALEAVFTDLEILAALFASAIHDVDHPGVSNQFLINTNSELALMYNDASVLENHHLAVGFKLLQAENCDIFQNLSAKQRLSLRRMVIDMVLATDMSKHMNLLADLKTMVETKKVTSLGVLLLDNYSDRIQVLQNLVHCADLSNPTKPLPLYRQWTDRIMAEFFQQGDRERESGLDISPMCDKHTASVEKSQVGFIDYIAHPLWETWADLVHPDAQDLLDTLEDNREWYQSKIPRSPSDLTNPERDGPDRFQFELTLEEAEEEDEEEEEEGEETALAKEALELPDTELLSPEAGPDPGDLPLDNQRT", "test": "PDE4 inhibition assay (fluorescence polarization), PDE4C1", "format": "biochemical", "details": "10 μM", "procedure": "as §1, §2, §3"}, "[8]": {"test": "in vitro", "details": "human hepatocytes", "experimental": "as §4"}, "[9]": {"test": "in vivo", "details": "beagle, dog", "text": "as §5, §6, §7"}, "[10]": {"test": "Hepatocyte metabolism (stability in cryopreserved hepatocytes)", "details": "human hepatocytes", "experimental": "as §4"}, "[11]": {"target": "PDE4A1A (Homo sapiens (Human), UniProt P27815)", "sequence (P27815 other isoform, or with tags, fused parts or gaps)": "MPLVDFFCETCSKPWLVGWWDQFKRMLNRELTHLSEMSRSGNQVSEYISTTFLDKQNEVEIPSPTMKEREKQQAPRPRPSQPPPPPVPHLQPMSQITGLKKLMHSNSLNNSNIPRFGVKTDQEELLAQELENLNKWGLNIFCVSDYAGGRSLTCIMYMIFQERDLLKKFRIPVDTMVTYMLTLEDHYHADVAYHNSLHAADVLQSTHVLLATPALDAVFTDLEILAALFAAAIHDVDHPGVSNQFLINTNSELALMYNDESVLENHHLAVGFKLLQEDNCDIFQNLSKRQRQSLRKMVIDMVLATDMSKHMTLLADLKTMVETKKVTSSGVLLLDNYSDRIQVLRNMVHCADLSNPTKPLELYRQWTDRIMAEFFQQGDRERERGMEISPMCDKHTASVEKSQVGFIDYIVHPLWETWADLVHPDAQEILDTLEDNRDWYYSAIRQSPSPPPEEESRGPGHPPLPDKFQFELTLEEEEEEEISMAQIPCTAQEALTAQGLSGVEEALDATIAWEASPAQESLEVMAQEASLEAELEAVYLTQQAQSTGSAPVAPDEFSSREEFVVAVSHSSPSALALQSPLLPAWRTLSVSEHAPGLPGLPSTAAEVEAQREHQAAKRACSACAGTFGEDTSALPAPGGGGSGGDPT", "test": "PDE4 inhibition assay (fluorescence polarization), PDE4A1A", "format": "biochemical", "details": "10 μM", "procedure": "as §1, §2, §3"}}, "note": "Where two headings read alike, the source gives them in different places."}
{"smiles": "COc1ccc([C@@]23CC[C@H](O)C[C@@H]2N(C)CC3)cc1OC", "note": "[Compound 019, (3aS,6S,7aS)-3a-(3,4-dimethoxyphenyl)-1-methyloctahydro-1H-indol-6-ol]", "values": [{"measurement": "% QH", "setting": "[1]", "value": "<10", "unit": "%"}, {"measurement": "CLHB", "setting": "[1]", "value": "<2", "unit": "mL/min/kg"}, {"measurement": "PDE4B2 % INH @ 10 μM", "setting": "[2]", "value": 0, "unit": "%"}, {"measurement": "PDE4B2 % INH @ 10 μM", "setting": "[2]; listed as Compound 19", "value": "no more than 5%"}, {"measurement": "behavioral activity (in words)", "setting": "[3]; mice, 3 mg/kg", "value": "low behaviorally activity"}, {"measurement": "antidepressant signature, subclass analysis", "setting": "[3]; mice, 100 mg/kg", "value": "a mix of SSRI and SNRI"}, {"measurement": "signature in class and subclass", "setting": "[3]; mice, 10, 30 and 100 mg/kg", "value": "mixed antidepressant and psychostimulant-like signatures"}, {"measurement": "IC50", "setting": "[4]", "value": "10.6 ± 10.1", "unit": "nM"}, {"measurement": "AUC_% Extrap_obs", "setting": "[5]; beagle, iv, 2 mg/kg", "value": 0.52, "unit": "%"}, {"measurement": "AUClast/D", "setting": "[5]; beagle, iv, 2 mg/kg", "value": 1560}, {"measurement": "Cl_obs", "setting": "[5]; beagle, iv, 2 mg/kg", "value": 10.82, "unit": "mL/min/kg"}, {"measurement": "AUC_% Extrap_obs", "setting": "[5]; beagle, po, 10 mg/kg", "value": 0.64, "unit": "%"}, {"measurement": "AUClast/D", "setting": "[5]; beagle, po, 10 mg/kg", "value": 1473.2}, {"measurement": "F", "setting": "[5]; beagle, po, 10 mg/kg", "value": 94.6, "unit": "%"}, {"measurement": "half-life compared to Compound 018", "setting": "[5]; iv", "value": "about three times greater"}, {"measurement": "PDE4D2 %INH @ 10 μM", "setting": "[6]", "value": 3, "unit": "%"}, {"measurement": "inhibition at 10 µM", "setting": "[6]; read-out: PDE4D2 %INH @ 10 μM", "value": "≤ 5", "unit": "%"}, {"measurement": "PDE4C1 % INH @ 10 μM", "setting": "[7]", "value": 3, "unit": "%"}, {"measurement": "inhibition at 10 µM", "setting": "[7]; read-out: PDE4C1 % INH @ 10 μM", "value": "≤ 5", "unit": "%"}, {"measurement": "CLint scaled at 1 µM", "setting": "[8]", "value": "< 2", "unit": "mL/min/kg"}, {"measurement": "half-life at 1 µM", "setting": "[8]", "value": "> 2", "unit": "h"}, {"measurement": "hepatocyte CLint at 1 µM", "setting": "[8]", "value": "< 1", "unit": "µL/min/1e6 cells"}, {"measurement": "AUC(0-inf)", "setting": "[9]; iv, 2 mg/kg", "value": 3140, "unit": "ng·h/mL"}, {"measurement": "AUC(0-t)", "setting": "[9]; iv, 2 mg/kg", "value": 3120, "unit": "ng·h/mL"}, {"measurement": "C0", "setting": "[9]; iv, 2 mg/kg", "value": 1530, "unit": "ng/mL"}, {"measurement": "MRT inf", "setting": "[9]; iv, 2 mg/kg", "value": 3.86, "unit": "h"}, {"measurement": "half-life", "setting": "[9]; iv, 2 mg/kg", "value": 3.38, "unit": "h"}, {"measurement": "AUC(0-inf)", "setting": "[9]; po, 10 mg/kg", "value": 14800, "unit": "ng·h/mL"}, {"measurement": "AUC(0-t)", "setting": "[9]; po, 10 mg/kg", "value": 14700, "unit": "ng·h/mL"}, {"measurement": "Cmax", "setting": "[9]; po, 10 mg/kg", "value": 2550, "unit": "ng/mL"}, {"measurement": "MRT inf", "setting": "[9]; po, 10 mg/kg", "value": 4.85, "unit": "h"}, {"measurement": "Tmax", "setting": "[9]; po, 10 mg/kg", "value": 0.83, "unit": "h"}, {"measurement": "half-life", "setting": "[9]; po, 10 mg/kg", "value": 3.33, "unit": "h"}, {"measurement": "Extraction Ratio", "setting": "[10]", "value": "<0.10"}, {"measurement": "t1/2", "setting": "[10]", "value": ">2", "unit": "h"}, {"measurement": "PDE4A1A % INH @ 10 μM", "setting": "[11]", "value": 4, "unit": "%"}, {"measurement": "inhibition at 10 µM", "setting": "[11]; read-out: PDE4A1A % INH @ 10 μM", "value": "≤ 5", "unit": "%"}]}
